Patent publication US10059687B2, “Histone demethylase inhibitors” (CELGENE QUANTICEL RESEARCH, INC., priority 2015, dated 2018)

Tests used:
Jarid1B = Jarid1B (Homo sapiens (Human), UniProt Q9UGL1); experiment: In vitro enzyme inhibition assay for Jarid1B activity (TR-FRET); type: biochemical
Method: The ability of test compounds to inhibit the activity of Jarid1B was determined in 384-well plate format under the following reaction conditions: 0.8 nM Jarid1B, 300 nM H3K4me3-biotin labeled peptide (Anaspec cat #64357), 2 μM alpha-ketoglutaric acid in assay buffer of 50 mM HEPES, pH7.3, 0.005% Brij35, 0.5 mM TCEP, 0.2 mg/ml BSA, 50 μM sodium L-ascorbate, and 2 μM ammonium iron(II) sulfate. Reaction product was determined quantitatively by TR-FRET after the addition of detection reagent Phycolink Streptavidin-allophycocyanin (Prozyme) and Europium-anti-H3K4me or -H3K4me2 antibody (PerkinElmer) in the presence of 5 mM EDTA in LANCE detection buffer (PerkinElmer) at a final concentration of 25 nM and 1 nM, respectively.
(§1) The assay reaction was initiated by the following: 2 μl of the mixture of 900 nM H3K4me3-biotin labeled peptide and 6 μM alpha-ketoglutaric acid with 2 μl of 11-point serial diluted inhibitor in 3% DMSO was added to each well of the plate, followed by the addition of 2 μl of 2.4 nM Jarid1B to initiate the reaction. The reaction mixture was incubated at RT for 30 min, and terminated by the addition of 6 μl of 5 mM EDTA in LANCE detection buffer containing 50 nM Phycolink Streptavidin-allophycocyanin and 2 nM Europium-anti-H3K4me/H3K4me2 antibody. Plates were read by EnVisionMultilabel Reader in TR-FRET mode (excitation at 320 nm, emission at 615 nm and 665 nm) after 1 hr incubation at RT. A ratio was calculated (665/615) for each well and fitted to determine inhibition constant (IC50).

[1] = system: esophageal squamous cell carcinoma KYSE-150 cells; experiment: Cellular IC50 in KYSE-150 cells; type: cell-based; settings: Homo sapiens, one class given per A and B pair
Description: Table 7 provides IC50 values of various compounds disclosed herein, tested in cellular human esophageal squamous cell carcinoma KYSE-150 cells: […]

JMJD2C = JMJD2C (Homo sapiens (Human), UniProt Q9H3R0); experiment: In vitro enzyme inhibition assay for JMJD2C activity (TR-FRET); type: biochemical
Chain of JMJD2C (Q9H3R0 2-372): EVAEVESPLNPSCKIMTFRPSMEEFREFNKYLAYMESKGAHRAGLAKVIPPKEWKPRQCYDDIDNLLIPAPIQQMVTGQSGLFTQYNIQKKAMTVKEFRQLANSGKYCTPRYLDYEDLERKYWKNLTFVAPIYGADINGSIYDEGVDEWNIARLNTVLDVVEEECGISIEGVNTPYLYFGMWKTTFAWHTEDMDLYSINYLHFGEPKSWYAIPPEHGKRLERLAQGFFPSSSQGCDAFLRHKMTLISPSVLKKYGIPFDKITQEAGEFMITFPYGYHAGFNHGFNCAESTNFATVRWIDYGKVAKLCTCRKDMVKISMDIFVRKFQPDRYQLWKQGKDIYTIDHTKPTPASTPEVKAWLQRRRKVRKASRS
Method: This assay determines the ability of a test compound to inhibit JMJD2C demethylase activity. Baculovirus expressed JMJD2C (GenBank Accession #BC143571, AA 2-372) was purchased from BPS Bioscience (Cat#50105).
The ability of test compounds to inhibit the activity of JMJD2C was determined in 384-well plate format under the following reaction conditions: 0.3 nM JMJD2C, 300 nM H3K9me3-biotin labeled peptide (Anaspec cat #64360), 2 μM alpha-ketoglutaric acid in assay buffer of 50 mM HEPES, pH7.3, 0.005% Brij35, 0.5 mM TCEP, 0.2 mg/ml BSA, 50 μM sodium L-ascorbate, and 2 μM ammonium iron(II) sulfate. Reaction product was determined quantitatively by TR-FRET after the addition of detection reagent Phycolink Streptavidin-allophycocyanin (Prozyme) and Europium-anti-di-methylated histone H3 lysine 9 (H3K9me2) antibody (PerkinElmer) in the presence of 5 mM EDTA in LANCE detection buffer (PerkinElmer) at a final concentration of 50 nM and 1 nM, respectively.
as §1, with “nM H3K9me3-biotin” for “nM H3K4me3-biotin”, “DMSO were” for “DMSO was”, “of 0.9” for “of 2.4”, “nM JMJD2C” for “nM Jarid1B”, “containing 100” for “containing 50”, “nM Europium-anti-H3K9me2” for “nM Europium-anti-H3K4me/H3K4me2”

JMJD3 = JMJD3 (Homo sapiens, UniProt O15054); experiment: In vitro enzyme inhibition assay for JMJD3 activity (TR-FRET); type: biochemical
Method: This assay determines the ability of a test compound to inhibit JMJD3 demethylase activity. Baculovirus expressed JMJD3 (GenBank Accession #NM-001080424, AA1043-end) was purchased from BPS Bioscience (Cat#50115).
The enzymatic assay of JMJD3 activity is based upon Time Resolved-Fluorescence Resonance Energy Transfer (TR-FRET) detection. The ability of test compounds to inhibit the activity of JMJD3 was determined in 384-well plate format under the following reaction conditions: 5 nM JMJD3, 250 nM H3K27me3-biotin labeled peptide (Anaspec cat #64367), 0.4 to 2 μM α-ketoglutaric acid in assay buffer of 50 mM HEPES, pH7.3, 0.005% Brij35, 0.5 mM TCEP, 0.2 mg/ml BSA, 50 μM sodium L-ascorbate, and 5 μM ammonium iron(II) sulfate. Reaction product was determined quantitatively by TR-FRET after the addition of detection reagent Phycolink Streptavidin-allophycocyanin (Prozyme) and Europium-anti-H3K27me2 antibody (PerkinElmer) in the presence of 5 mM EDTA in LANCE detection buffer (PerkinElmer) at a final concentration of 50 nM and 1 nM, respectively.
The assay reaction was initiated by the following: […] of the mixture of 750 nM H3K27me3-biotin labeled peptide and 1.2 to 6 μM alpha-ketoglutaric acid with 2 μL of 11-point serial diluted inhibitor in 3% DMSO were added to each well of plate, followed by the addition of 2 μl of 15 nM JMJD3 to initiate the reaction. The reaction mixture was incubated at RT for 30 min, and terminated by the addition of 6 μL of 5 mM EDTA in LANCE detection buffer containing 100 nM Phycolink Streptavidin-allophycocyanin and 2 nM Europium-anti-H3K27me2 antibody. Plates were read by EnVisionMultilabel Reader in TR-FRET mode (excitation at 320 nm, emission at 615 nm and 665 nm) after 1 hr incubation at RT. A ratio from the readout of 665/615 was calculated for each well and fitted to determine inhibition constant (IC50).

[2] = Table 4, cell gives A/B enantiomer values
[3] = Table 5, one class given per A and B pair

Chain of Jarid1B (Q9UGL1 whole entry, species assumed): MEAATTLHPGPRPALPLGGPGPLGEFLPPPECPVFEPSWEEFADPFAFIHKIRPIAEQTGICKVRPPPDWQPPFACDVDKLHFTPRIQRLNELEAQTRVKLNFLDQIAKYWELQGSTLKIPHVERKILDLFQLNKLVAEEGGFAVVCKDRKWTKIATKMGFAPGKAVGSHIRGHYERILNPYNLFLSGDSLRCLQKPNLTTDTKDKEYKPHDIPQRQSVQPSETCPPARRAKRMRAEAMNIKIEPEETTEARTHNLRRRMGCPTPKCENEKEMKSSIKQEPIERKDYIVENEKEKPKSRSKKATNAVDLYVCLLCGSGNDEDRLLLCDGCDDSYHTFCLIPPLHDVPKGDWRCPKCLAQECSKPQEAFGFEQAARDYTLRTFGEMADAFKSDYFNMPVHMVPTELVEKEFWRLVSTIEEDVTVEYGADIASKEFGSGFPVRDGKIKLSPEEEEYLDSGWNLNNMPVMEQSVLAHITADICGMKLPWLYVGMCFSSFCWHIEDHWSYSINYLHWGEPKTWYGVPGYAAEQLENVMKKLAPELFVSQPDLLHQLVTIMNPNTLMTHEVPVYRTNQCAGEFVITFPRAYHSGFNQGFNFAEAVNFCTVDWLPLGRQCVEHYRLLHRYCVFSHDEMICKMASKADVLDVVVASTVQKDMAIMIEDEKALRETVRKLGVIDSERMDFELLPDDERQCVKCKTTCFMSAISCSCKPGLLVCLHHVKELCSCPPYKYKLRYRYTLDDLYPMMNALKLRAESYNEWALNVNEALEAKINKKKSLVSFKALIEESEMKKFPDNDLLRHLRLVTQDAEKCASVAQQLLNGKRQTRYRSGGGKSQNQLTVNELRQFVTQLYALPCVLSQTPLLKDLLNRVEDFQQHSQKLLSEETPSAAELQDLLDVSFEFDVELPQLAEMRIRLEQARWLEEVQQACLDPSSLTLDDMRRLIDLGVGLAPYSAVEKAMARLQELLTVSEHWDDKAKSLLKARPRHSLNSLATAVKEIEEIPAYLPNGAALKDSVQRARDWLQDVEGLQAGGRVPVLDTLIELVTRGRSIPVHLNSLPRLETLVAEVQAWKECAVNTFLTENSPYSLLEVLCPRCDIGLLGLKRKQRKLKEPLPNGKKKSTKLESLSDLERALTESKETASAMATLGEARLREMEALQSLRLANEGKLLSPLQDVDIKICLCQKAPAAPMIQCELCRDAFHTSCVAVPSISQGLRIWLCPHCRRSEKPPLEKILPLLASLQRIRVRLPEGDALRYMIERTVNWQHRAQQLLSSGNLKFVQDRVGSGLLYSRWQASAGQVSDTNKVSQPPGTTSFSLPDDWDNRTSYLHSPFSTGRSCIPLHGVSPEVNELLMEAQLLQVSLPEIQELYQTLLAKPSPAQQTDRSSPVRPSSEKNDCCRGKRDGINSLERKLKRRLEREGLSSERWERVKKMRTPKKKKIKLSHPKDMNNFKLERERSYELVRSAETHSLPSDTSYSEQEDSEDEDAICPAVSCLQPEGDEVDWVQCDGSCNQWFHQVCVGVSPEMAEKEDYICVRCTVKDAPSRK

| IC50 (Jarid1B; [2]) [nM] | IC50 (Jarid1B; [3]) [nM] | IC50 [1] [nM] | IC50 (JMJD2C; [2]) [nM] | IC50 (JMJD2C; [3]) [nM] | IC50 (JMJD3; [2]) [µM] | IC50 (JMJD3; [3]) [µM] | Compound |
| --- | --- | --- | --- | --- | --- | --- | --- |
| ≤ 100 | ≤ 100 | 100 to 1000 | 1000 to 10000 | 100 to 1000 | > 10 | > 10 | Cc1cc(OCC2CC2)ccc1-c1ccc2c(c1)CCN[C@H]2CNc1cnccc1C(=O)O [Example 4B, 3-[({(1R)-6-[4-(cyclopropylmethoxy)-2-methylphenyl]-1,2,3,4-tetrahydro-isoquinolyl}methyl)amino]pyridine-4-carboxylic acid] |
|  | ≤ 100 | ≤ 100 |  | 1000 to 10000 |  | 1 to 10 | Cc1ccccc1-c1ccc2c(c1)CCN(C)[C@@H]2CNc1cnccc1C(=O)O [Example 12B, (S)-3-(((2-methyl-6-(o-tolyl)-1,2,3,4-tetrahydroisoquinolin-1-yl)methyl)amino)isonicotinic acid] |
|  | ≤ 100 | ≤ 100 |  | 1000 to 10000 |  | 1 to 10 | Cc1ccccc1-c1ccc2c(c1)CCN(C)[C@H]2CNc1cnccc1C(=O)O [Example 12A, (R)-3-(((2-methyl-6-(o-tolyl)-1,2,3,4-tetrahydroisoquinolin-1-yl)methyl)amino)isonicotinic acid] |
|  | ≤ 100 | ≤ 100 |  | 100 to 1000 |  | 1 to 10 | Cc1ccc(N(C)c2ccc3c(c2)CCN(C)[C@@H]3CNc2cnccc2C(=O)O)cc1 [Example 11B, (S)-3-(((2-methyl-6-(methyl(p-tolyl)amino)-1,2,3,4-tetrahydroisoquinolin-1-yl)methyl)amino)isonicotinic acid] |
|  | ≤ 100 | ≤ 100 |  | 100 to 1000 |  | 1 to 10 | CCc1ccccc1-c1ccc2c(c1)CN(C)[C@H]2CNc1cnccc1C(=O)O [Example 22A, (R)-3-(((5-(2-ethylphenyl)-2-methyl-isoindolin-1-yl)methyl)amino) isonicotinic acid] |
| ≤ 100 | ≤ 100 | 100 to 1000 | 1000 to 10000 | 1000 to 10000 | > 10 | 1 to 10 | CC(C)c1ccc(N(C)c2ccc3c(c2)CN[C@H]3CNc2cnccc2C(=O)O)cc1 [Example 6B, 3-{[((1R)-5-{methyl[4-isopropylphenyl]amino}isoindolinyl)methyl]amino}pyridine-4-carboxylic acid] |

More lines, now with the values behind:

| Compound | IC50 (Jarid1B; [2]) [nM] | IC50 (Jarid1B; [3]) [nM] | IC50 [1] [nM] | IC50 (JMJD2C; [2]) [nM] | IC50 (JMJD2C; [3]) [nM] | IC50 (JMJD3; [2]) [µM] | IC50 (JMJD3; [3]) [µM] |
| --- | --- | --- | --- | --- | --- | --- | --- |
| CCc1ccc(N(C)c2ccc3c(c2)CN(C)[C@@H]3CNc2cnccc2C(=O)O)cc1 [Example 19B, (S)-3-(((5-((4-ethylphenyl)(methyl)amino)-2-methylisoindolin-1-yl)methyl)amino)isonicotinic acid] |  | ≤ 100 | ≤ 100 |  | 100 to 1000 |  | 1 to 10 |
| CCc1ccc(N(C)c2ccc3c(c2)CCN(C)[C@@H]3CNc2cnccc2C(=O)O)cc1 [Example 13B, (S)-3-(((6-((4-ethylphenyl)(methyl)amino)-2-methyl-1,2,3,4-tetrahydro-isoquinolin-1-yl)methyl)amino)isonicotinic acid] |  | ≤ 100 | ≤ 100 |  | 100 to 1000 |  | 1 to 10 |
| Cc1ccc(N(C)c2ccc3c(c2)CN(C)[C@H]3CNc2cnccc2C(=O)O)cc1 [Example 18A, (R)-3-(((2-methyl-5-(methyl(p-tolyl)amino)isoindolin-1-yl)methyl)amino) isonicotinic acid] |  | ≤ 100 | ≤ 100 |  | 100 to 1000 |  | 1 to 10 |
| CCc1ccc(N(C)c2ccc3c(c2)CCN(C)[C@H]3CNc2cnccc2C(=O)O)cc1 [Example 13A, (R)-3-(((6-((4-ethylphenyl)(methyl)amino)-2-methyl-1,2,3,4-tetrahydro-isoquinolin-1-yl)methyl)amino)isonicotinic acid] |  | ≤ 100 | ≤ 100 |  | 100 to 1000 |  | 1 to 10 |
| Cc1cc(OCC(F)(F)F)ccc1-c1ccc2c(c1)CN[C@H]2CNc1cnccc1C(=O)O [Example 7B, 3-[({(1R)-5-[2-methyl-4-(2,2,2-trifluoro-ethoxy)phenyl]isoindolinyl}methyl)amino] pyridine-4-carboxylic acid] | ≤ 100 | ≤ 100 | 100 to 1000 | 1000 to 10000 | 1000 to 10000 | 1 to 10 | 1 to 10 |
| CCCc1ccc(N(C)c2ccc3c(c2)CN(C)[C@@H]3CNc2cnccc2C(=O)O)cc1 [Example 20B, (S)-3-(((2-methyl-5-(methyl (4-propylphenyl)amino)isoindolin-1-yl)methyl)amino)isonicotinic acid] |  | ≤ 100 | ≤ 100 |  | 100 to 1000 |  | 1 to 10 |
| Cc1ccccc1-c1ccc2c(c1)CN(C)[C@@H]2CNc1cnccc1C(=O)O [Example 21B, (S)-3-(((2-methyl-5-(o-tolyl)isoindolin-1-yl)methyl)amino)isonicotinic acid] |  | ≤ 100 | ≤ 100 |  | 100 to 1000 |  | 1 to 10 |
| CCc1ccccc1-c1ccc2c(c1)CN(C)[C@@H]2CNc1cnccc1C(=O)O [Example 22B, (S)-3-(((5-(2-ethylphenyl)-2-methyl-isoindolin-1-yl)methyl)amino) isonicotinic acid] |  | ≤ 100 | ≤ 100 |  | 100 to 1000 |  | 1 to 10 |
| CCc1ccc(N(C)c2ccc3c(c2)CCN[C@H]3CNc2cnccc2C(=O)O)cc1 [Example 10A, (R)-3-(((6-((4-ethylphenyl)(methyl)amino)-1,2,3,4-tetrahydroisoquinolin-1-yl)methyl)amino)isonicotinic acid] |  | ≤ 100 | 100 to 1000 |  | 1000 to 10000 |  | 1 to 10 |
| CCc1ccccc1-c1ccc2c(c1)CCN[C@H]2CNc1cnccc1C(=O)O [Example 9A, (R)-3-(((6-(2-ethylphenyl)-1,2,3,4-tetrahydroisoquinolin-1-yl)methyl)amino)isonicotinic Acid] |  | ≤ 100 | 100 to 1000 |  | 1000 to 10000 |  | 1 to 10 |
